# Marks after values point to notes of the source that are not given here.
# Columns and labels:
# [1] = test system: Kunming mice; assay: Mice writhing model (acetic acid); type: in vivo; details: Mus musculus, po; Mice; Acetic acid Writhing; read-out: Analgesia ED50
# Method: Kunming mice were used, with a male-female ratio of 50-50%. The test compound is administered i.p. (20 mg/Kg body weight) to the test groups, and physiological saline is administered P.O. (20 ml/Kg body weight) to the control group. After 30 minutes, acetic acid (0.7%, […] i.p.) was injected and the number of writhes was observed during a 5-minute period after acetic acid administration. The inhibition ratio of the writhing threshold was calculated. The alternating current tube is used to record the spontaneous activities for measuring sedation.
# (§1) Two species of animals (mice and rats) and four types of pain testing models (i.p. 0.7% acetic acid, s.c. 5% formalin, hot plate 55° C., focused radiant heat) were used.
# [2] = test system: rat; assay: Rat 5% formalin paw s.c.; type: in vivo; details: p.o., read-out: Analgesia ED50
# Method: as §1
# [3] = test system: rat; assay: Rat tail flick model (focused radiant heat); type: in vivo; details: po, read-out: Analgesia ED50
# [4] = test system: rat; assay: animal or person; details: Rattus norvegicus, po, read-out: Analgesia ED50
# Method: Using 55° C. hot plate pain threshold detector (available from Ninghai Baishi Electronic Medical Instrument Co., Zheijiang, China) the threshold change before and after administration of a pharmaceutical composition of the present invention is tested. […] hind paw was scrubbed with alcohol cotton ball before the experiment. The regular pain threshold was tested twice for each rat, the induced hind paw licking time being recorded as the pain threshold. Measurements were made at 20-30 minute intervals. Only rats with stable pain reaction were used in the pharmaceutical test.
# as §1
# [5] = test system: rats; assay: Conditional position preference in rats; details: Morphine group, i.g.
# Excerpt: A commercially available device for testing (Med Associates Inc.) was used. Measurements were automatically recorded by a computer.
# The data are indicated by means of […], t-test was employed to compare the data in different groups. The rats were divided randomly into groups by weight, 12 for each group. They were positive control groups. […] The experiments were divided into stages of accommodation, training and test. Accommodation: Open the doors between black box and grey box and the door between white box and grey box. put the rats in from the grey box; let them run free in the training box for 15 minutes for 4 days. Training: The white box is with medicine while the black one is without it. The period training is 10 days, the first day with the medicine while the second day not; the third day with the medicine while the fourth day not, so on and so forth. When carrying out the training with medicine, 15 minutes after the rat is administrated (i.g.) with medicine, it is put into the white box for 30 minutes. When the training is without medicine, 15 minutes after the rat is administrated (i.g.) with saline, it is put into the black box for 30 minutes. Test: On the 11th day, the rat is put into the training box, with the door open. The time the rat stays in each box, and the number of time it enters during 15 minutes were determined, and the percentage of the time staying in the white box to the time together in white box and black box is calculated (Table 12).
# [6] = test system: Mice; assay: Mice 55° C. hot plate; type: in vivo; details: Mus musculus, po, read-out: Analgesia ED50
# Method: as §1
# [7] = test system: rats; assay: Precipitated withdrawal test in rats; type: in vivo; details: Morphine group
# Method: 48 rats were divided into 4 groups (12 for each group, ? fifty-fifty). Morphines IV-12-1 (75 mg/Kg), IV-12-2 (100 mg/Kg) and saline, was administered respectively using progressive dose increase for 14 days and 3 times per day. On the 15th day, Narcan is injected (i.p. 4 mg/kg) to precipitate withdrawal. The withdrawal syndrome was observed and the rats wre weighed at 30, 60 and 120 minutes after the injection respectively.
# [8] = test system: rats; assay: Spontaneous withdrawal tests (body weight); type: in vivo; details: Morphine group
# Method: 96 mice were divided into 4 groups (24 for each group, ? fifty-fifty), and Morphine, IV-12-1, IV-12-2, warm boiled water were administered respectively, using progressive dose increase for 7 days (i.g.) and 2 times per day. The weight of the rats after drug withdrawal was compared with the weight one day before drug withdrawal at a corresponding time (See Table 9 and 10).
# [9] = test system: rats; assay: Spontaneous withdrawal tests (body weight); type: in vivo; details: Morphine group; remark: listed apart in the source
# [10] = test system: Mice; assay: Jumping test in mice (Narcan precipitated); type: in vivo; details: Morphine group
# Method: Sixty-four mice were divided into 4 groups (16 for each group, ? fifty-fifty) Morphine, IV-12-1 (75 mg/Kg) IV-12-2 (100 mg/Kg) and saline were administrated respectively 3 times per day for 7 days with progressive dose increase. On the 7th day, Narcan is injected (i.p. 2 mg/kg) to precipitate withdrawal. The number of times for the mice to jump was recorded and the incidence of the jump calculated.
structure (smiles),measurement,setting,value
"CC(=O)Oc1ccccc1C(=O)O [Aspirin, reference compound]",ED50,[1],348 mg/kg
same,ED50,[2],2310 mg/kg
same,ED50,[3],> 5000 mg/kg
same,ED50,[4],843 mg/kg
"CN1CC[C@]23c4c5ccc(O)c4O[C@H]2[C@@H](O)C=C[C@H]3[C@H]1C5 [Morphine, reference compound]",ED50,[1],6.8 mg/kg
same,Percent in the medicine box (%),[5],62.0 ± 8.0 %
same,ED50,[6],7.7 mg/kg
same,Percent of the lost weight (IV ± SD),[7]; 30 min after Narcan,−5.1 ± 0.7
same,Percent of the lost weight (IV ± SD),[7]; 60 min after Narcan,−5.9 ± 1.0
same,Percent of the lost weight (IV ± SD),[7]; 120 min after Narcan,−7.0 ± 0.7
same,Abstinence syndrome (IV ± SD),"[7]; 14 days, Narcan i.p. 4 mg/kg",9.2 ± 2.8
same,Increase (%) of weight,[8]; 114 h after withdrawal,−4.7%
same,Weight,[8]; 144 h after withdrawal,282.0 ± 41 g
same,Weight after withdrawal compared with weight one day before withdrawal,"[8]; ♀, 114 h after withdrawal",0.97 ± 0.03
same,Weight after withdrawal compared with weight one day before withdrawal,"[8]; ♂, 18 h after withdrawal",0.97 ± 0.04
same,ED50,[3],23.3 mg/kg
same,ED50,[4],107 mg/kg
same,Greatest decrease of weight after drug withdrawal,[9],10%
same,Increase (%) of weight,[9]; 12 h after withdrawal,−0.5%
same,Weight,[9]; 12 h after withdrawal,284.7 ± 40 g
same,Increase (%) of weight,[9]; 18 h after withdrawal,−3.2%
same,Weight,[9]; 18 h after withdrawal,276.9 ± 39 g
same,Increase (%) of weight,[9]; 24 h after withdrawal,−6.4%
same,Weight,[9]; 24 h after withdrawal,267.9 ± 37 g
same,Increase (%) of weight,[9]; 36 h after withdrawal,−8.2%
same,Weight,[9]; 36 h after withdrawal,262.7 ± 37 g
same,Increase (%) of weight,[9]; 42 h after withdrawal,−9.7%
same,Weight,[9]; 42 h after withdrawal,258.4 ± 35 g
same,Increase (%) of weight,[9]; 48 h after withdrawal,−10.2%
same,Weight,[9]; 48 h after withdrawal,257.0 ± 33 g
same,Increase (%) of weight,[9]; 60 h after withdrawal,−10.3%
same,Weight,[9]; 60 h after withdrawal,256.6 ± 31 g
same,Increase (%) of weight,[9]; 66 h after withdrawal,−10.5%
same,Weight,[9]; 66 h after withdrawal,256.0 ± 34 g
same,Increase (%) of weight,[9]; 72 h after withdrawal,−9.0%
same,Weight,[9]; 72 h after withdrawal,260.4 ± 36 g
same,Increase (%) of weight,[9]; 84 h after withdrawal,−6.1%
same,Weight,[9]; 84 h after withdrawal,268.7 ± 37 g
same,Increase (%) of weight,[9]; 90 h after withdrawal,−7.5%
same,Weight,[9]; 90 h after withdrawal,264.7 ± 37 g
same,Increase (%) of weight,[9]; 96 h after withdrawal,−6.0%
same,Weight,[9]; 96 h after withdrawal,269.0 ± 40 g
same,Increase (%) of weight,[9]; 108 h after withdrawal,−3.0%
same,Weight,[9]; 108 h after withdrawal,277.6 ± 38 g
same,Weight,[9]; 114 h after withdrawal,272.9 ± 38 g
same,Increase (%) of weight,[9]; 120 h after withdrawal,−3.8%
same,Weight,[9]; 120 h after withdrawal,275.4 ± 40 g
same,Increase (%) of weight,[9]; 132 h after withdrawal,−0.5%
same,Weight,[9]; 132 h after withdrawal,284.6 ± 38 g
same,Increase (%) of weight,[9]; 138 h after withdrawal,−2.4%
same,Weight,[9]; 138 h after withdrawal,279.3 ± 38 g
same,Increase (%) of weight,[9]; 144 h after withdrawal,−1.5%
same,Increase (%) of weight,[9]; 156 h after withdrawal,1.7%
same,Weight,[9]; 156 h after withdrawal,291.0 ± 40 g
same,Increase (%) of weight,[9]; 162 h after withdrawal,−0.6%
same,Weight,[9]; 162 h after withdrawal,284.2 ± 40 g
same,Increase (%) of weight,[9]; 168 h after withdrawal,0.1%
same,Weight,[9]; 168 h after withdrawal,286.5 ± 42 g
same,Weight,[9]; before withdraw,286.2 ± 40 g
same,Weight after withdrawal compared with weight one day before withdrawal,"[9]; ♀, 18 h after withdrawal",0.98 ± 0.03
same,Weight after withdrawal compared with weight one day before withdrawal,"[9]; ♀, 42 h after withdrawal",0.92 ± 0.02
same,Weight after withdrawal compared with weight one day before withdrawal,"[9]; ♀, 66 h after withdrawal",0.91 ± 0.02
same,Weight after withdrawal compared with weight one day before withdrawal,"[9]; ♀, 90 h after withdrawal",0.94 ± 0.02
same,Weight after withdrawal compared with weight one day before withdrawal,"[9]; ♀, 138 h after withdrawal",1.00 ± 0.03
same,Weight after withdrawal compared with weight one day before withdrawal,"[9]; ♀, 162 h after withdrawal",1.01 ± 0.03
same,Weight after withdrawal compared with weight one day before withdrawal,"[9]; ♂, 42 h after withdrawal",0.91 ± 0.03
same,Weight after withdrawal compared with weight one day before withdrawal,"[9]; ♂, 66 h after withdrawal",0.90 ± 0.03
same,Weight after withdrawal compared with weight one day before withdrawal,"[9]; ♂, 90 h after withdrawal",0.94 ± 0.03
same,Weight after withdrawal compared with weight one day before withdrawal,"[9]; ♂, 114 h after withdrawal",0.97 ± 0.03
same,Weight after withdrawal compared with weight one day before withdrawal,"[9]; ♂, 138 h after withdrawal",0.99 ± 0.04
same,Weight after withdrawal compared with weight one day before withdrawal,"[9]; ♂, 162 h after withdrawal",1.01 ± 0.04
same,Incidence for jump (%),[10],87.5* %
same,Times for jump (IV ± SD),"[10]; 3 times per day for 7 days, Narcan i.p. 2 mg/kg",68 ± 43

# From patent US7332495B2 (priority 2002, dated 2008)
